Experimental data: patent publication US20240398785A1, “SMALL MOLECULE DRUGS FOR THE INDUCTION OF TRAINED IMMUNITY” (THE UNIVERSITY OF CHICAGO, priority 2023, published 2024)

Assays:
BMDMs [1] = test: A1155463 in-vitro training assay in BMDMs; type: cell-based, mouse; settings: 24 hours after challenge, vs PBS-trained
Procedure: (§1) FIGS. 5A-5F: Testing A1155463 as an inducer of trained immunity (TI) in vitro. FIG. 5A is a schematic diagram for in-vitro TI assay in bone marrow-derived macrophages (BMDMs). FIG. 5B is a graph showing interleukin-6 (IL-6) levels (expressed in picograms per milliliter (pg/ml) 24 hours (h) post PAM3-CSK4 (Pam3) challenge in an in-vitro TI assay in BMDMs trained with either phosphate buffered saline (PBS) (black) or A1155463 (pink); n=15. FIG. 5C is a graph showing tumor necrosis factor alpha (TNF-α) levels (pg/ml) 24 h post Pam3 challenge in an in-vitro TI assay in BMDMs trained with either PBS (black) or A1155463 (pink); n=10. FIG. 5D is a graph showing IL-6 levels (pg/ml) 24 h post-stimulation with PBS (black) or A1155463 (pink); n=3. FIG. 5E is a graph showing the fold change in TNF-α following Pam3 challenge in BMDMs trained with A1155463 pre-treated with PBS, MTA (histone methyl transferase inhibitor), EGCG (histone acetyltransferase inhibitor) or 2-DG (glycolysis inhibitor); n=15, significance compared with PBS control of each inhibitor. FIG. 5F is a graph of IL-6 levels (pg/ml) 24 h post Pam3 challenge in an in-vitro TI assay in BMDMs trained with either PBS (black) or A1155463 (pink) pretreated with varying concentrations of 2-DG; n=5.
A1155463 is a commercially available inhibitor of the B-cell lymphoma-extra large (Bcl-xL) protein. […]

bone-marrow cells = test: Bone-marrow cells of trained mice challenged ex-vivo with LPS; type: in vivo, mouse; settings: 5 ng/mL LPS ex vivo, 24 hours
Procedure: (§2) FIGS. 6A-6H: in-vivo A1155463 trained immunity (TI) assays. FIG. 6A is a schematic showing the in-vivo training schedule. Mice were dosed intraperitoneally (i.p.) with training material (PBS or A1155463 at 15 milligrams per kilogram body weight (mg/kg)) daily for six days. Mice were challenged with […] lipopolysaccharide (LPS) on day 7. FIG. 6B is a graph showing the interleukin-6 (IL-6) and tumor necrosis factor-alpha (TNF-α) levels (expressed as picograms per milliliter (pg/ml) 1 hour (h) following LPS challenge with either PBS (black) or A1155463 (pink); n=5. FIG. 6C is a graph showing the percentage (%) of small peritoneal macrophages (SPMs) from the peritoneal cavity of PBS (black) or A1155463 trained (pink) mice 2 h post LPS challenge on day 7. FIG. 6D is a graph showing the IL-6 levels (pg/ml) from bone-marrow cells isolated on day 7 challenged ex-vivo with LPS from either PBS (black) or A1155463 (pink) trained mice; n=3. FIG. 6E is a schematic showing the in-vivo training schedule for B16.F10 tumor challenge. […]
Apart from increased systemic cytokines, recruitment of monocyte-derived small peritoneal macrophages (SPMs) is another hallmark of enhanced training. […] Bone-marrow cells from PBS or A1155463 trained cells were challenged with 5 ng/mL of LPS and the supernatant was analyzed 24 hours later. […]

B16.F10 tumors = test: B16.F10 tumor model after A1155463 training; type: in vivo, mouse
Procedure: as §2, with “challenge. FIG. 6F is a graph showing the tumor volumes (in cubic millimeters (mm3)) of mice trained with PBS (black) or A1155463 (pink) mice; n=8. FIG. 6G is a schematic of the in-vivo training schedule for B16.F10 tumor challenge with checkpoint therapy (CPT) administered on day 14 and 17.” for “challenge.”

BMDMs [2] = test: A1155463 training with inhibitor pre-treatment (MTA, EGCG, 2-DG); type: cell-based, mouse
Procedure: as §1
After ruling out apoptosis and innate inflammation, an additional study was performed to attempt to determine the mechanism of action of A1155463-induced training in BMDMs. Training induces epigenetic and metabolic rewiring of macrophages which can be probed using small molecule inhibitors of various pathways.^16 Epigenetic changes are associated with increased histone methylation and acetylation, promoting transcription and translation of proinflammatory cytokines in response to pathogenic stimuli. Metabolic changes alter cellular metabolism, mostly favoring glycolysis, to meet the higher energy requirements of a trained cell. […]

BMDMs [3] = test: Annexin-V staining for apoptotic cells; type: cell-based, mouse; settings: 100 nM, 24 hours
Procedure: FIGS. 9A-9E: Representative plots for Annexin V gating strategy for apoptotic cells: BMDMs were stimulated with nothing (unstained control, FIG. 9A), PBS (negative control, FIG. 9B), Camptothecin (positive control, FIG. 9C) or A1155463 (FIG. 9D); n=3, (except camptothecin n=1). Results from plots 9B-9D depicted in FIG. 9E.
Since Bcl-xL is a known anti-apoptotic protein, a study was performed to see if inhibition with 100 nM A1155463 induced apoptosis in BMDMs. To test this, Annexin-V staining was used to gate for apoptotic cells 24 hours following stimulation with either PBS or A1155463.

Structure (SMILES): CN(C)CC#Cc1ccc(OCCCc2sc(N3CCc4cccc(C(=O)Nc5nc6ccccc6s5)c4C3)nc2C(=O)O)c(F)c1 [A1155463, 2-(8-(benzo[d]thiazol-2-ylcarbamoyl)-3,4-dihydroisoquinolin-2(1H)-yl)-5-(3-(4-(3-(dimethyl-amino)prop-1-yn-1-yl)-2-fluorophenoxy)propyl)thiozole-4-carboxylic acid]
- increase in IL-6 following Pam3 challenge (BMDMs [1]): approximately 1.2 fold
- increase in TNF-α following Pam3 challenge (BMDMs [1]): approximately 1.2 fold
- increase in bone-marrow derived IL-6 levels vs untrained control (bone-marrow cells): approximately 5 fold
- tumor growth vs untrained (vehicle) control (B16.F10 tumors; 15 mg/kg daily for 6 days, s.c. B16.F10 24 hours after last dosing): significant decrease in tumor growth
- tumor growth with checkpoint therapy (B16.F10 tumors; plus anti-PDL1 and anti-CTLA-4 on days 14 and 17): Significantly reduced tumor growth
- training after epigenetic small molecule inhibitors (MTA, EGCG) (BMDMs [2]; 30 min pre-treatment): no significant difference
- Pam3 induced IL-6 levels with 2-DG (BMDMs [2]; different concentrations of 2-DG): significant decrease
- reduction in the TNF-α level following Pam3 challenge by 2DG pre-treatment (BMDMs [2]; glycolysis inhibitor 2DG): 50%
- percentage of apoptotic cells (BMDMs [3]): No significant difference
